Source: article PMC11550998, “Novel 5-HT7 receptor antagonists modulate intestinal immune responses and reduce severity of colitis” (American Journal of Physiology - Gastrointestinal and Liver …, 2024)

Assays:
α2A = biological target: T1, α2A (Homo sapiens, UniProt P08913); assay: PDSP selectivity profiling, α2A; format: binding
T1 construct: NIMH Psychoactive Drug Screening Program (PDSP), assay service
Description: (§1) In vitro assessments of MC-170073, MC-20078, and MC-230079 activity at the following targets were determined using the assay systems available through the Psychoactive Drug Screening Program (PDSP). Detailed protocols for each assay are available at https://pdsp.unc.edu/pdspweb/?site=assays. Receptors 5-HT1A, 5-HT1B, 5-HT1D, 5-HT1E, 5-HT2A, 5-HT2B, 5-HT2C, 5-HT3, 5-HT5A, 5-HT6, 5-HT7, α1A, α1B, α1D, α2A, α2B, α2C, benzodiazepine, β1, β2, β3, GABA-A, H1, H2, H3, H4, M1, M2, M3, M4, M5, δ-opioid, κ-opioid, and µ-opioid and transporters dopamine, norepinephrine, and serotonin were evaluated.

[1] = biological target: α1a, α1b, α1d, β1, β2, β3, D2, D5, DAT, GABA-A, H2, H3, H4, mAChR1-5, opioid receptors (δ, κ, µ), benzodiazepine receptors (peripheral and brain) …; assay: Additional selectivity profiling, receptors and transporters (PDSP); details: PDSP panel, limited binding capacity; read-out: Ki at a variety of receptors and transporters
Description: as §1

[2] = Plasma protein binding by equilibrium dialysis; format: in vitro ADME; details: mouse
Description: Plasma protein binding was performed by using equilibrium dialysis (ED) ([17]). ED was performed using a 96-well equilibrium dialyzer with a molecular weight (MW) cutoff of 5 K (Harvard Apparatus, Holliston, MA) and placed in a dual-plate rotator set to maximum speed (Harvard Apparatus, Holliston, MA) located in a 37°C incubator with a 10% CO2 environment. After 22 h of dialysis, buffer and plasma were removed from each side of the dialysis plate. Samples were mixed with equal volumes of the opposite matrix (plasma or buffer) and stored at −20°C for future analyte quantitation.
Plasma concentrations were determined using an LC-MS/MS method. Briefly, 100-µL acetonitrile with an internal standard solution (Diltiazem, 0.1 μg/mL) was added to 50-µL plasma or tissue homogenate. After being vortexed for 1 min, the mixture was centrifuged at 3,000 g for 5 min. LC-MS/MS analysis was carried out using a high-performance liquid chromatography system consisting of an Agilent 1100 system interfaced to an API4000 SCIEX triple-quadrupole tandem mass spectrometer (Applied Biosystems/MDS Sciex, Foster City, CA). […] The detection and quantification of analytes were performed with the m/z transition 347/191 for MC-170073, MC-230078, and MC-230079, and m/z 415/178 for diltiazem.

D4 = biological target: T2, D4 (Homo sapiens, UniProt P21917); assay: PDSP selectivity profiling, D4; format: binding
T2 construct: NIMH Psychoactive Drug Screening Program (PDSP), assay service

α2B = biological target: T3, α2B (Homo sapiens, UniProt P18089); assay: PDSP selectivity profiling, α2B; format: binding
T3 construct: NIMH Psychoactive Drug Screening Program (PDSP), assay service
Description: as §1

D1 = biological target: T4, D1 (Homo sapiens, UniProt P21728); assay: PDSP selectivity profiling, D1; format: binding
T4 construct: NIMH Psychoactive Drug Screening Program (PDSP), assay service
T4 sequence (P21728 whole entry): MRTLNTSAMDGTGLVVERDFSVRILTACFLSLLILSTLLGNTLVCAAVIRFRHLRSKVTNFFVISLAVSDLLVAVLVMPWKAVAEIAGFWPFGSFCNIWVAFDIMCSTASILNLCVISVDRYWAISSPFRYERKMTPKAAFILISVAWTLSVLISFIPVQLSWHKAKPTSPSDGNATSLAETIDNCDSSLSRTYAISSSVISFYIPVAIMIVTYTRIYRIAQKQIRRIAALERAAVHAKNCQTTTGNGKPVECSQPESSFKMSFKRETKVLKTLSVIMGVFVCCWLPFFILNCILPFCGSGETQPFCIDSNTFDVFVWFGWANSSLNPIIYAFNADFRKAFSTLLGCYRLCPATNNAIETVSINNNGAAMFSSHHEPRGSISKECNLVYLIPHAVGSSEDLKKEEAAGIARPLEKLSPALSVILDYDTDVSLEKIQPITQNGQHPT

T1 sequence (P08913 whole entry): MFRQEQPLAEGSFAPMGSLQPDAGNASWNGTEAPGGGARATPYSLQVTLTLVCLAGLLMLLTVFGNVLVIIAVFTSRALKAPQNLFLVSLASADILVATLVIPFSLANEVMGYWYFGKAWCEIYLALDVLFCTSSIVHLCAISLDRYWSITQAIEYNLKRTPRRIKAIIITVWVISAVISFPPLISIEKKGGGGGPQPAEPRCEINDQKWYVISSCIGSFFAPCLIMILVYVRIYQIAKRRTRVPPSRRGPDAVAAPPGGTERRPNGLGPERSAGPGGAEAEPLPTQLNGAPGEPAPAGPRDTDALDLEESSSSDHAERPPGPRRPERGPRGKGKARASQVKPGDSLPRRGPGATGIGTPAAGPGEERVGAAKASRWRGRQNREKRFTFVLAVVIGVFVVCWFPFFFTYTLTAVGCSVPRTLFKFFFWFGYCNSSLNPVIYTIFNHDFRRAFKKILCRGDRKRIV
T3 sequence (P18089 whole entry): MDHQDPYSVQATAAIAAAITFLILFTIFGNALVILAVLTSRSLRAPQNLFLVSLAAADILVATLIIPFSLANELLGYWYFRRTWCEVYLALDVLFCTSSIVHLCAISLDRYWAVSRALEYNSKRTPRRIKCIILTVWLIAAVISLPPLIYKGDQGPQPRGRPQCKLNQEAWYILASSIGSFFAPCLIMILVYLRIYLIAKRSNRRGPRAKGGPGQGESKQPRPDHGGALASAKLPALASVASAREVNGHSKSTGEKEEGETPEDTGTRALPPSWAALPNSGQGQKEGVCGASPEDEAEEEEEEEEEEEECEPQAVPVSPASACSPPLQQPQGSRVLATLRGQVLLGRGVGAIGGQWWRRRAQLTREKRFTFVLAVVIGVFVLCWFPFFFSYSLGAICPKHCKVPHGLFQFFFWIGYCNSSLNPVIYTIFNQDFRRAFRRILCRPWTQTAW
T2 sequence (P21917 whole entry): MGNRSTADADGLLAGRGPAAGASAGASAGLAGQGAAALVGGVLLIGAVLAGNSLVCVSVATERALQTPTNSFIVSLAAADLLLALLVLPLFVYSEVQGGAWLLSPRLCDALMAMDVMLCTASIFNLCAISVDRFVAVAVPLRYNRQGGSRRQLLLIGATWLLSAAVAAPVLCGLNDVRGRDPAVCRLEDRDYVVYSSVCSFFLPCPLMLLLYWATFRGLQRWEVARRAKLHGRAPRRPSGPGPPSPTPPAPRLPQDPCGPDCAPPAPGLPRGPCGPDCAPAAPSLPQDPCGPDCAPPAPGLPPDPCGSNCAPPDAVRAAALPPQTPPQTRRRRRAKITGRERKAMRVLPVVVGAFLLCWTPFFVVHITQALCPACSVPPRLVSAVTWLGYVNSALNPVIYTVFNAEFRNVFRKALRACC

Ki (α2A): 3480 nM | Ki [1]: > 10000 nM | fraction unbound at 22 h [2]: 0.6 | Ki (D4): 591 nM | Ki (α2B): 493 nM | Ki (D1): 301 nM
SMILES: CCC1(CC)CC(CCN2CCN(c3ccc(O)cc3)CC2)OC1=O (stereo not drawn) [MC-170073]
